Here are results for eight compounds from PubChem BioAssay (NCI).

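A five-concentration, 48-hour dose response in 96-well plates underlies each endpoint, interpolated linearly between surrounding concentrations. Abbreviation: GI50, concentration required for 50% inhibition of growth. TGI: concentration producing complete growth inhibition.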 A value given as a limit tells only on which side of the number the result lay.

Test in all cases: NCI anticancer screen, dose series, 48 h
For assay [1], the system named is BT-549 breast.
For assay [2], the system named is HCC-2998 colon.
Assay [3] has as its system HT29 colon.
The test system of assay [4] is SR leukemia.
Assay [5] deals with SF-268 CNS.
The subject of assay [6] is TK-10 renal.
For assay [7], the system named is HCT-15 colon.
Assay [8] has as its system SK-OV-3 ovarian.
Assay [9] concerns UACC-257 melanoma.
The subject of assay [10] is SNB-75 CNS.

In the case of `O=C(Nc1ccc(F)cc1)Nc1ccc(Cl)c([N+](=O)[O-])c1`, the GI50 was 2.9 µM in assay [1]; 3.71 µM in assay [2]; 3.2 µM in assay [3]; 3.41 µM in [4]; 4.42 µM in [5]; 4.1 µM in assay [6]. Moreover, the GI50 in assay [7] was 2.92 µM; in [8], 2.62 µM; in assay [9], 2.73 µM; in [10] it was 5.93 µM. The TGI in assay [1] was 10.8 µM; in assay [2] it was 14.3 µM; in assay [3], 12.4 µM; in [4], over 100 µM; in [5] it was 17.3 µM; in assay [6], 20.1 µM. Also, the TGI in assay [7] was 12.1 µM; in assay [8] it was 7.52 µM; in assay [9], 8.85 µM; in [10], over 100 µM.

For the compound `CC(C)=CCC\C(C)=C/C=C/C(C)=C\C=C\C(C)=C/C=C/C=C(C)\C=C\C=C(C)/C=C/C=C(/C)CCC=C(C)C`, the TGI in [1], in assay [2], in assay [3], in assay [4], in assay [5] and in [6] was over 100 µM each time. The TGI in assay [7], in assay [8], in [9] and in [10] was over 100 µM throughout.

On to `C=C(C)C(OC)C(O)CC1(C)CC(O)CC(C)(C2CCC3OC(C4(C)CCC(Br)C(C)(C)O4)CCC3(C)O2)O1` (stereo not given), for which the GI50 in assay [1] was 19.9 µM; in [2], 14.8 µM; in [3] it was 30.3 µM; in assay [4], 34.9 µM; in assay [5], 18.9 µM; in assay [6], 16 µM. Besides, the GI50 in assay [7] is 26.2 µM; in assay [8], 22.8 µM; in assay [9] it was 20.2 µM; in assay [10], 27.4 µM. Moreover, the TGI was 38.4 µM in [1]; 30.1 µM in assay [2]; over 78.9 µM in [3]; over 100 µM in assay [4]; 40.3 µM in assay [5]; 33.5 µM in [6]. Further, the TGI in [7] was over 68 µM; in [8], 54.3 µM; in assay [9] it was 43 µM; in assay [10], over 61.5 µM.

As to `COc1cc2c(cc1OCCCCN1CCN(CC(=O)Nc3ccc(Cl)cc3C(=O)c3ccccc3Cl)CC1)N=CC1CCCN1C2=O` (stereo not given), the GI50 is 0.292 µM in assay [1]; 0.194 µM in assay [2]; 0.25 µM in assay [3]; 0.138 µM in assay [4]; 0.268 µM in assay [5]; 0.311 µM in assay [6]. For the same compound, the GI50 in assay [7] was 0.923 µM; in [8] it was 0.38 µM; in assay [9] it was 0.2 µM; in [10], 0.223 µM. The TGI was 0.799 µM in [1]; 0.343 µM in [2]; 1.04 µM in assay [3]; 0.456 µM in assay [4]; 0.711 µM in assay [5]; 0.841 µM in assay [6]. The TGI in [7] was found to be 2.3 µM; in assay [8], 1.22 µM; in assay [9], 0.575 µM; in [10], 0.572 µM.

On to `COc1cc(/C=N\NC(=O)CN2CCN(c3cc4c(cc3F)c(=O)c(C(=O)N/N=C/c3cc(OC)c(OC)c(OC)c3)cn4C3CC3)CC2)cc(OC)c1OC`, for which the GI50 in [1] is 0.199 µM; in [2] it was 0.178 µM; in [3], 0.278 µM; in [4] it was 0.324 µM; in assay [5], 0.292 µM; in [6], over 100 µM. For the same compound, the GI50 in [7] is over 100 µM; in assay [8], 0.718 µM; in assay [9], 0.36 µM; in [10], 0.53 µM. For the same compound, the TGI in [1] is 0.461 µM; in assay [2], 0.33 µM; in assay [4], over 100 µM; in assay [6] it was over 100 µM; in assay [7] it was over 100 µM; in assay [8] it was over 53.1 µM. The compound also registered a TGI in assay [10] of 2.12 µM.

Regarding `c1ccc(-c2nc(-c3ccccc3SSc3ccccc3-c3nc(-c4ccccc4)nn3-c3ccccc3)n(-c3ccccc3)n2)cc1`, the TGI in [1], in [2], in assay [4], in [5], in assay [6] and in [7] was over 100 µM each time. Moreover, the TGI in assay [8] and in assay [10] was over 100 µM each time.

Consider `Fc1[nH]nc2ccc([C@@H]3Nc4ccc5[nH]ncc5c4[C@H]4C5CCC(C5)[C@@H]34)cc12` (stereo not given in full), for which the GI50 in assay [1] is 1.77 µM; in assay [2] it was 3.14 µM; in assay [3], 0.439 µM; in assay [4], 0.37 µM; in assay [5], 2.59 µM; in assay [6] it was 3.51 µM. Also, the GI50 in assay [7] was 0.495 µM; in assay [8] it was 1.88 µM; in [9], 10.4 µM; in assay [10] it was 0.503 µM. For the same compound, the TGI in assay [1] came out at 17.8 µM; in assay [2], 12.8 µM; in [3], 12.8 µM; in assay [4] it was 3.61 µM; in assay [5], 19.8 µM; in [6], 15.5 µM. Besides, the TGI in assay [7] stood at 13.1 µM; in assay [8], 16.5 µM; in [9], 23.9 µM; in [10], 3.93 µM.

For the compound `Nc1ccccc1C#C/C=C\C#Cc1ccccc1OC(F)(F)F`, the GI50 in assay [1] is 5.78 µM; in assay [2], 2.93 µM; in [3], 3.62 µM; in assay [4], 1.63 µM; in assay [5], 6.44 µM; in [6], 10.6 µM. The GI50 in assay [7] was 4 µM; in [8], 7.12 µM; in [9], 12 µM; in assay [10], 2.47 µM. Moreover, the TGI worked out at 22.5 µM in assay [1]; 14.7 µM in assay [2]; 28.7 µM in assay [3]; 13.9 µM in assay [4]; 32 µM in assay [5]; 43.7 µM in [6]. For the same compound, the TGI in [7] was 20 µM; in assay [8], 67.7 µM; in assay [9], 50.7 µM; in assay [10] it was 7.85 µM.
